From patent US5045566A, “Novel imidate insecticides” (ICI Americas Inc., priority 1989, dated 1991)

Legend:
Type in all cases: in vivo
[1] = system: Tobacco Budworm [Heliothis virescens (Fabricius)] larvae; experiment: Tobacco budworm larvae, contact (TBW-C), 5 days; conditions: percent in solution, second-instar larvae
Summary of the method: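 Cotton cotyledons dipped 2–3 s in compound in 50-50 acetone-water, dried, then infested with 5 second-instar larvae and held 5 days at high humidity. Mortality scored; LC50 from dosage-mortality curves, expressed as percent compound in solution, concentrations from 0.1% downward.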

[2] = system: Aster Leafhopper [Macrosteles fascifrens (Stal)]; experiment: Aster leafhopper on dipped oat seedlings (LH), 48 hours; conditions: percent in solution, adults/nymphs
Summary of the method: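 LC50 values, given as percent of test compound in the dip solution, were derived from dosage-mortality curves over concentrations from 0.05% downward. Mortality was counted 48 hours after ten leafhopper adults/nymphs were enclosed on treated seedlings. The seedlings were oats, about 10 cm tall, briefly dipped in 50-50 acetone-water.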

[3] = system: Tobacco Budworm [Heliothis virescens (Fabricius)] eggs; experiment: Tobacco budworm eggs (TBW-E); conditions: percent in solution; 2-day old eggs
Summary of the method: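 LC50 values (percent test compound in the dip solution) were calculated from dosage-mortality curves. Egg patches, 2 days old, were dipped in acetone solutions at concentrations from 0.1% downward and held at 78° F on rearing medium until control larvae hatched and fed.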

[4] = system: Maize weevil [Sitophilus zeamais (Motschulsky)]; experiment: Maize weevil on dipped corn seeds (MW), 48 hours; conditions: percent in solution, adult weevils
Summary of the method: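 LC50, given as percent of compound in dipping solution, comes from dosage-mortality curves over concentrations descending from 0.01%. Four corn seeds soaked 2-3 s in 50:50 acetone:water solution were dried and held with 10 adult weevils, about 25° C, mortality read after 48 h.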

[5] = system: Black Bean Aphid [Aphis fabae (Scop.)]; experiment: Black bean aphid spray test on nasturtium (BBA), 48 hours; conditions: percent of test compound in sprayed solution
Summary of the method: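 LC50, given as percent test compound in the sprayed liquid, was calculated from dosage-mortality curves using concentrations from 0.05% downward. Sprays in 50:50 acetone-water went to runoff on ~5 cm nasturtiums carrying 25-50 aphids of mixed ages, one day after infestation. Deaths were counted 48 h later under greenhouse conditions.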

[6] = system: Cabbage Looper [Trichoplusia ni (Hubner)]; experiment: Cabbage looper leaf dip (CL), 3-5 days; conditions: percent in solution, second-instar larvae
Summary of the method: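 Leaf dip, squash cotyledons, 50-50 acetone-water, top dose 0.1% and lower. 5 second-instar larvae/dish, moist filter paper, high-humidity chamber. Mortality at 3-5 d; LC50 (% in solution) from dosage-mortality curves.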

[7] = system: Beet Armyworm (Spodoptera exigua); experiment: Beet armyworm leaf dip (BAW), 5 days; conditions: percent in solution; second-instar larvae; five days
Experimental: The compounds in Tables 1 and 2 above were tested for insecticidal activity using the following testing procedures. LC50 values, based on the results of these tests and calculated according to dosage-mortality curves, are expressed in Table 3.
Beet Armyworm (Spodoptera exigua):
Test compounds were diluted in a 50-50 acetone-water solution. Young leaves of sugar beets (Beta vulgaris) were immersed in the test solutions for 2-3 seconds and placed on a wire screen to dry. The dried leaves were placed in petri dishes containing a moistened filter paper and infested with five second-instar beet armyworm larvae. The dishes were placed in a high humidity chamber. Mortality of the larvae was recorded five days later. Test concentrations ranged from 0.1% downward. The LC-50 values are expressed below in Table 3 under the heading "BAW" in terms of percent of the test compound in solution.

[8] = system: Housefly [Musca domestica]; experiment: Housefly contact mortality in dishes (HF), 48 hours; conditions: μg of test compound per 25 female flies
Summary of the method: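 LC50 (μg compound per 25 female flies) derives from dosage-mortality curves of 48 h kill. Flies, females 1-2 days old, were held 25 per cage over a dish coated with dried acetone deposit, starting at 100 μg per cage and descending.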

SMILES	LC50 TBW C (contact) [1] [%]	LC50 LH [2] [%]	LC50 TBW E (eggs) [3] [%]	LC50 MW [4] [%]	LC50 BBA [5] [%]	LC50 CL [6] [%]	LC50 BAW [7] [%]	LC50 HF [8] [µg]
Clc1cccc(N=C(OCc2cccc(Oc3ccccc3)c2)C(Cl)Cl)c1 [Compound 1]	0.06	> 0.05	0.05	> 0.01	0.0003	0.005	0.009	4.8
CC(Cl)(Cl)C(=Nc1ccc(Cl)cc1)OCc1cccc(Oc2ccccc2)c1 [Compound 3]	0.009	> 0.05	> 0.1	> 0.01	0.003	0.012	0.015	50
CC(C)C(=Nc1ccc(Cl)c(Cl)c1)OCc1cccc(Oc2ccccc2)c1 [Compound 9]	0.0008	0.0003	0.02	> 0.01	0.001	0.001	0.0005	14
Clc1ccc(N=C(OCc2cccc(Oc3ccccc3)c2)C(Cl)Cl)cc1 [Compound 29]	0.001	0.003	0.01	> 0.01	0.001	0.002	0.003	5
ClCC(=Nc1ccc(Cl)cc1)OCc1cccc(Oc2ccccc2)c1 [Compound 31]	0.01	> 0.05	> 0.1	> 0.01	0.05	0.05	0.08	> 100
CC(Cl)C(=Nc1ccc(Cl)cc1)OCc1cccc(Oc2ccccc2)c1 (stereo not drawn) [Compound 33]	0.0025	> 0.05	> 0.1	> 0.01	0.003	0.01	0.02	17
CC(=Nc1ccccc1)OCc1cccc(Oc2ccccc2)c1 [Compound 42]	> 0.1	> 0.05	> 0.1	> 0.01	> 0.05	> 0.1	> 0.1	45
CC(C)C(=Nc1ccc(F)c(F)c1)OCc1cccc(Oc2ccccc2)c1 [Compound 54]	0.001	0.00015	0.017	–	0.001	0.0003	0.004	3.5
FC(F)(F)c1ccc(N=C(OCc2cccc(Oc3ccccc3)c2)C(Cl)Cl)cc1 [Compound 61]	0.03	> 0.05	0.03	> 0.01	0.001	0.001	0.002	29
FC(F)(F)Oc1ccc(N=C(OCc2cccc(Oc3ccccc3)c2)C(Cl)Cl)cc1 [Compound 64]	0.1	> 0.05	0.03	> 0.01	0.0006	0.0025	0.0025	11
CC(C)C(=Nc1ccc(Cl)c(C(F)(F)F)c1)OCc1cccc(Oc2ccccc2)c1 [Compound 71]	0.0008	0.002	0.065	–	0.001	0.0006	0.0004	50
CC(C)C(=Nc1cc(F)cc(C(F)(F)F)c1)OCc1cccc(Oc2ccccc2)c1 [Compound 77]	0.0004	0.0002	0.03	> 0.01	0.001	0.0005	0.004	10
CC(C)C(=Nc1cccc(C(F)(F)F)c1)OCc1ccc(F)c(Oc2ccccc2)c1 [Compound 80]	0.00075	0.0001	0.005	–	0.00025	0.0003	0.0018	4.5
CC(C)C(=Nc1ccc(C(C)C)cc1)OCc1cccc(Oc2ccccc2)c1 [Compound 144]	0.006	0.0006	0.05	> 0.01	0.003	0.002	> 0.01	100
CC(C)C(=Nc1ccc2c(c1)OCO2)OCc1cccc(Oc2ccc(F)cc2)c1 [Compound 176]	0.002	> 0.05	0.05	0.009	0.0006	0.0005	0.0035	1.8
CC(C)C(=Nc1cccc(C(F)(F)F)c1)OCc1ccc(F)c(Oc2ccc(F)cc2)c1 [Compound 268]	0.0005	0.0005	0.023	> 0.01	> 0.05	0.000025	0.001	4
CC(C)C(=Nc1ccc2c(c1)OC(F)(F)O2)OCc1ccc(F)c(Oc2ccc(F)cc2)c1 [Compound 284]	0.0002	0.0003	–	0.0075	0.0003	0.00005	0.0025	39
